Reference: US7595156B2 (priority 2003, dated 2009)

Assays:
[1] = background statement, Liang and Zhou 1987; cited from earlier work
[2] = system: mosquito larva; settings: background statement, Liang and Zhou 1987; cited from earlier work
[3] = system: Saccharomyces cerevisiae; test: Antifungal activity test, growth inhibition zones; format: cell-based; settings: activity of the CS101 and CS102 culture mediums attributed to the variants produced in the mutant strains; FIG. 7
Description: FR-008 mutant strains CS101 and CS102 were added (see, FIG. 7). In FIG. 7, the left turbid zone is a zone added with Streptomyces sp. FR-008, the middle is a zone added with the mutant strain CS101, and the right is a zone added with the mutant strain CS102. […] This is caused by the polyketide variants V, VI, VIII, IX, X, XI and XII, which are produced in the mutant strains.

SMILES | antifungal activity [1] | toxicity against mosquito larva [2] | antifungal activity of polyketide variants [3]
C[C@H](C[C@H](C)[C@@H]1OC(=O)CC(=O)CCCC(=O)C[C@@H](O)C[C@@H](O)C[C@@H](O)C[C@]2(O)C[C@H](O)[C@H](C(=O)O)[C@H](C[C@H](O[C@@H]3O[C@@H](C)[C@H](O)[C@@H](N)[C@H]3O)/C=C/C=C/C=C/C=C/C=C/C=C/C=C/[C@@H]1C)O2)[C@H](O)CC(=O)c1ccc(N)cc1 [FR-008 polyketide] | antifungal activity | high toxicity | 
C[C@H](C[C@H](C)[C@@H]1OC(=O)CC(=O)CCCC(=O)CCC[C@@H](O)C[C@@H](O)CC(=O)C[C@H](O)[C@H](C(=O)O)[C@@H](O)C[C@H](O[C@@H]2O[C@@H](C)[C@H](O)C(=O)[C@H]2O)/C=C/C=C/C=C/C=C/C=C/C=C/C=C/[C@@H]1C)[C@H](O)CC(=O)c1ccc(N)cc1 [polyketide XII] |  |  | antifungal activity
